Data set [1] deals with Atg7-knockout (Atg7-ko or Atg7−/−) mouse embryonic fibroblasts. Kind of data set: GFP-LC3 puncta in Atg7 deficient MEFs. Type of data set: cell-based. The settings on record: 20 μM liensinine or 10 μM others, 24 h (FIGS. 4a to 4c). The method, then: GFP-LC3 puncta formation was quantified as previously described. In brief, both Atg7 wild-type (Atg7-wt or Atg7+/+) and deficient (Atg7-/-) mouse embryonic fibroblasts (MEFs) were transfected with GFP-LC3 plasmid and then grown on coverslips in a 6-well plate. The cells were then treated with 20 μM of […], 10 μM of isoliensinine, 10 μM of dauricine, 10 μM of cepharanthine, hernandezine or 10 μM of thalidezine. for 24 h. The cells were then fixed in 4% paraformaldehyde for 20 minutes at room temperature and then rinsed with PBS. Slides were mounted with FluorSaveTM mounting media (Calbiochem, San Diego, Calif.) and examined by fluorescence microscopy. The number of GFP-positive cells with GFP-LC3 puncta formation was examined under the Nikon ECLIPSE 80i microscope. Representative images were captured with CCD digital camera Spot RT3TM (Diagnostic Instruments, Inc., Melville, N.Y.). To quantify for autophagy, the percentage of cells with punctate GFP-LC3 fluorescence was calculated by counting the number of the cells with punctate GFP-LC3 fluorescence in GFP-positive cells. A minimum of 150 cells from 3 randomly selected fields were scored.

In data set [2] the test system is a panel of cancer and normal cells. Put plainly: GFP-LC3 puncta formation in a panel of cancer and normal cells. Type of data set: cell-based, human. The settings on record: fluorescent microscopy (FIG. 2c). How it is done:
(§1) GFP-LC3 puncta formation was quantified as previously described. In brief, GFP-LC3 transfected cells grown on coverslips in a 6-well plate were treated with or without 20 μM of […], 10 μM of isoliensinine, dauricine, cepharanthine, hernandezine or thalidezine for 4 hours, the cells were then fixed in 4% paraformaldehyde for 20 minutes at room temperature and then rinsed with PBS. Slides were mounted with FluorSaveTM mounting media (Calbiochem, San Diego, Calif.) and examined by fluorescence microscopy. The number of GFP-positive cells with GFP-LC3 puncta formation was examined under the Nikon ECLIPSE 80i microscope. Representative images were captured with CCD digital camera Spot RT3TM (Diagnostic Instruments, Inc., Melville, N.Y.). To quantify for autophagy, the percentage of cells with punctate GFP-LC3 fluorescence was calculated by counting the number of the cells with punctate GFP-LC3 fluorescence in GFP-positive cells. A minimum of 150 cells from 3 randomly selected fields was scored.

The subject of another data set is HeLa cancer cells. Put plainly: Quantification of autophagy GFP-LC3 puncta in HeLa cells. The settings on record: 20 μM liensinine or 10 μM others, 4 hours, compared to DMSO control (FIG. 2a). The class given is cell-based, human. How it is done:
as §1

For a further data set, the system named is LC3-II. Kind of data set: Detection of autophagic marker protein LC3 conversion (Western blot). To be noted: HeLa cells, Western blot (FIG. 2b). The class given is cell-based, human. The method, then:
After treatments with […], isoliensinine, dauricine, cepharanthine, hernandezine and thalidezine, cells were harvested and lysed in RIPA buffer (Cell Signaling Technologies Inc., Beverly, Mass.). The cell lysates were then resolved by SDS-PAGE. After electrophoresis, the proteins from SDS-PAGE were transferred to nitrocellulose membrane which was then blocked with 5% non-fat dried milk for 60 minutes. The membrane was then incubated with LC3 primary antibodies (1:1000) in TBST overnight at 4° C. After that, the membrane was further incubated with HRP-conjugated secondary antibodies for 60 minutes. Finally, protein bands were visualized by using the ECL Western Blotting Detection Reagents (Invitrogen, Paisley, Scotland, UK).
(In general: Immunoblotting shows a protein as a band on a membrane.)

In another data set the test system is p70S6K. Kind of data set: Detection of mTOR signaling marker proteins: p70S6K phosphorylation (Western blot). The class given is cell-based, human. The settings on record: HeLa cells, 20 μM liensinine or 10 μM others (FIG. 5a). The method, then:
(§2) HeLa cells treated with 20 μM of […], 10 μM of isoliensinine, 10 μM of dauricine, 10 μM of cepharanthine, 10 μM of hernandezine and 10 μM of thalidezine were harvested and lysed in RIPA buffer (Cell Signaling). The cell lysates were then resolved by SDS-PAGE. After electrophoresis, the proteins from SDS-PAGE were transferred to nitrocellulose membrane which was then blocked with 5% non-fat dried milk for 60 minutes. The membrane was then incubated with P-p70S6K, p70S6K, P-AMPK, AMPK and actin primary antibodies (1:1000) in TBST overnight at 4° C. respectively. After that, the membrane was further incubated with HRP-conjugated secondary antibodies for 60 minutes. Finally, protein bands were visualized by using the ECL Western Blotting Detection Reagents (Invitrogen).

Another data set concerns AMPK. Kind of data set: Detection of mTOR signaling marker proteins: AMPK phosphorylation (Western blot). Type of data set: cell-based, human. The settings on record: HeLa cells, 20 μM liensinine or 10 μM others, compared to DMSO control (FIG. 5a). How it is done:
as §2

For data set [3], the system named is HeLa cells expressing GFP-LC3. Kind of data set: GFP-LC3 puncta quantification in the presence of AMPK inhibitor compound C. The class given is cell-based, human. The settings on record: compound C 5 μM, 24 hours (FIG. 5b). The method, then:
GFP-LC3 puncta formation was quantified as previously described. In brief, HeLa cells expressing GFP-LC3 were treated with indicated concentrations of […], isoliensinine, dauricine, cepharanthine, hernandezine and thalidezine in the presence of AMPK inhibitor, compound C (CC, 5 μM), for 24 hours. The cells were then fixed in 4% paraformaldehyde for 20 minutes at room temperature and then rinsed with PBS. Slides were mounted with FluorSaveTM mounting media (Calbiochem) and examined by fluorescence microscopy. To quantify for autophagy, the percentage of cells with punctate GFP-LC3 fluorescence was calculated by counting the number of the cells with punctate GFP-LC3 fluorescence in GFP-positive cells. A minimum of 150 cells from 3 randomly selected fields were scored.

The subject of data set [4] is panel of human cancer cells (HeLa, MCF-7, HepG2, Hep3B, H1299, A549, PC3). Kind of data set: cells. Type of data set: cell-based. How it is done:
The test compounds of liensinine, isoliensinine, dauricine, cepharanthine, hernandezine and thalidezine were dissolved in DMSO at a final concentration of 100 mmol/L and stored at −20° C. Cytotoxicity was assessed using the 3-(4,5-dimethylthiazol-2-yl)-2,5-diphenyltetrazolium bromide assay as described previously. 4000-8000 HeLa (human cervical cancer), MCF-7 (human breast cancer), HepG2 (human liver cancer), Hep3B (human liver cancer), H1299 (human lung cancer), A549 (human lung cancer), PC3 (human prostate cancer) and LO2 (human normal liver) cells were seeded on 96-well plates per well. After overnight pre-incubation, the cells were exposed to different concentrations of liensinine, isoliensinine, dauricine, cepharanthine, hernandezine and thalidezine (0.039-100 μmol/L) for 3 days. Specifically, the following concentrations are used for all of the above alkaloids: […], 0.039 μmol/L. Subsequently, 10 μL of MTT reagents was added to each well and incubated at 37° C. for 4 hours followed by the addition of 100 μL solubilization buffer (10% SDS in 0.01 mol/L HCl) and overnight incubation. Absorbance at 585 nm was determined from each well on the following day. The percentage of cell viability was calculated using the following formula: Cell viability (%)=Cells number treated/Cells number DMSO control×100. Data was obtained from three independent experiments.

[5] abbreviates: Homo sapiens, 72 h, read-out: mean IC50 value (cell cytotoxicity).

Consider five molecules from US9561220B2, “Group of alkaloids, the novel autophagic enhancers for treatment of cancers and neurodegenerative conditions thereof” (Macau University of Science and Technology, priority 2014, dated 2017).

Like-named read-outs stand apart in the source and are kept apart here.

For orientation: IC50 means the concentration at which inhibition is half-maximal.

In the case of `COc1ccc2cc1Oc1ccc(cc1)C[C@H]1c3cc(c(OC)cc3CCN1C)Oc1c(OC)c(OC)c(OC)c3c1[C@H](C2)N(C)CC3` [hernandezine], in data set [1], the “GFP-LC3 puncta formation in Atg7-knockout cells” value is “not”. Further, the “formation of GFP-LC3 puncta” value in data set [2] is “increased”. Further, the GFP-LC3 puncta formation entry in the data set on HeLa cancer cells is on record as “significantly induced”. Also, the “conversion of the autophagic marker LC3-II” value (“conversion” for short) with LC3-II is “induced”. Also, the “downstream p70S6K phosphorylation” value in the data set with p70S6K is listed as “concomitant reduction”. In addition, the “phosphorylation of AMPK” value with AMPK was “activate”. For the same molecule, the “compound-induced GFP-LC3 puncta formation in the presence of AMPK inhibitor (Compound C)” value in data set [3] is listed as “significant reduction”. Further, the half-maximal inhibitory concentration (IC50) in data set [4] (setting [5]) lay in the range of 4.52 to 61.8 µM.
With `COc1cc2c(cc1OC)[C@@H](Cc1ccc(Oc3cc(C[C@@H]4c5cc(OC)c(OC)cc5CCN4C)ccc3O)cc1)N(C)CC2` [dauricine], in data set [1], the “GFP-LC3 puncta formation in Atg7-knockout cells” value was “not”. The “formation of GFP-LC3 puncta” value in data set [2] is recorded as “increased”. In addition, the GFP-LC3 puncta formation result with HeLa cancer cells was “significantly induced”. Moreover, in the data set with LC3-II, the “conversion” value is given as “induced”. Besides, the “downstream p70S6K phosphorylation” value in the data set with p70S6K is listed as “concomitant reduction”. Further, the “phosphorylation of AMPK” value in the data set with AMPK is “activate”. The “compound-induced GFP-LC3 puncta formation in the presence of AMPK inhibitor (Compound C)” value in data set [3] is “significant reduction”. For the same molecule, the IC50 in data set [4] (setting [5]) was in the range of 4.52 to 61.8 µM.
With `COc1cc2c(cc1OC)[C@@H](Cc1ccc(O)c(Oc3cc4c(cc3OC)CCN(C)[C@@H]4Cc3ccc(O)cc3)c1)N(C)CC2` [liensinine], in data set [1], the “GFP-LC3 puncta formation in Atg7-knockout cells” value is “not”. For the same molecule, the “formation of GFP-LC3 puncta” value in data set [2] was “increased”. Further, the GFP-LC3 puncta formation result in the data set with HeLa cancer cells is listed as “significantly induced”. Also, the “conversion” value in the data set with LC3-II was “induced”. Besides, in the data set with p70S6K, the “downstream p70S6K phosphorylation” value was “concomitant reduction”. The “phosphorylation of AMPK” value in the data set with AMPK is given as “activate”. The “compound-induced GFP-LC3 puncta formation in the presence of AMPK inhibitor (Compound C)” value in data set [3] is given as “significant reduction”. For the same molecule, the IC50 in data set [4] fell in the range of 4.52 to 61.8 µM.
With thalidezine, the “GFP-LC3 puncta formation in Atg7-knockout cells” value in data set [1] is recorded as “not”. Moreover, the “formation of GFP-LC3 puncta” value in data set [2] was “increased”. Besides, the GFP-LC3 puncta formation result in the data set with HeLa cancer cells is reported as “significantly induced”. For the same molecule, in the data set on LC3-II, the “conversion” value is “induced”. The “downstream p70S6K phosphorylation” value in the data set on p70S6K is given as “concomitant reduction”. Moreover, the “phosphorylation of AMPK” value in the data set on AMPK is on record as “activate”. In addition, the “compound-induced GFP-LC3 puncta formation in the presence of AMPK inhibitor (Compound C)” value in data set [3] is on record as “significant reduction”. In data set [4], this molecule had an IC50 of 4.52 to 61.8 µM.
On to `COc1ccc(C[C@@H]2c3cc(Oc4cc(C[C@@H]5c6cc(O)c(OC)cc6CCN5C)ccc4O)c(OC)cc3CCN2C)cc1` [isoliensinine], for which the “GFP-LC3 puncta formation in Atg7-knockout cells” value in data set [1] was “not”. For the same molecule, the “formation of GFP-LC3 puncta” value in data set [2] is “increased”. The GFP-LC3 puncta formation entry with HeLa cancer cells was “significantly induced”. Moreover, the “conversion” value with LC3-II is recorded as “induced”. Also, the “downstream p70S6K phosphorylation” value with p70S6K is “concomitant reduction”. The “phosphorylation of AMPK” value in the data set on AMPK was “activate”. For the same molecule, in data set [3], the “compound-induced GFP-LC3 puncta formation in the presence of AMPK inhibitor (Compound C)” value is recorded as “significant reduction”. In addition, the IC50 in data set [4] (setting [5]) fell in the range of 4.52 to 61.8 µM.
